Measured values from a melting point compilation (Tetko et al.; mined from patent text by program, amines drawn as free bases though some values may be those of a salt).

Compound | melting point
CNC(=O)NCCCCc1cccc(OC)c1 | 74 to 75.5 °C
Cc1cscc1NC(=S)Nc1c(N)c(F)c(F)c(F)c1F | 286 to 290 °C
Cc1nnc2n1-c1ccccc1C(c1ccccc1)=NC2NC(=O)Nc1ccc(Cl)cc1 (stereo not given) | 292 to 294 °C
CCC1(c2cccc(S(=O)(=O)c3ccc(C(C)(C)C)cc3)c2)COC(C)(C)O1 (stereo not given) | 108 to 110 °C
Cc1cc(CCCCCCCOc2ccc(C3=N[C@@H](C(C)C)CO3)cc2)on1 | 122 to 123 °C
C=CCOC(=O)c1c(C)nc2c(cnn2CCC(=C)C)c1N | 68 to 69 °C
CCC(=O)C=Cc1ccc(OCc2ccccc2)cc1 | 123 to 125 °C
O=C(CCc1ccccc1)NCC(=O)N1c2ccccc2N(Cc2ccccc2)C(=O)[C@H]2CCC[C@H]21 (relative stereo) | 205 to 207 °C
CC(=O)C(C)Oc1cc(-n2c(=O)cc(C(F)(F)F)[nH]c2=O)c(F)cc1Br (stereo not given) | 183 °C
O=C1Nc2cccnc2C12COc1cc3c(cc12)OCCO3 (stereo not given) | > 250 °C
CCOCc1cc2c(=O)c(C(=O)NCc3ccc(Cl)cc3)cn(C)c2o1 | 211 to 212 °C
O=C(CCl)Nc1ccc2c(c1)C(=O)c1cc(NC(=O)CCl)ccc1C2=O | 286 °C
C(=Cc1ccc(-c2nnn[nH]2)cc1)c1ccc(OCc2ccc3ccccc3n2)cc1 | 241 to 243 °C
COc1ccc2c(c1)CCN(CCc1ccc(NC(=O)c3cccc4c(=O)c5cccc(OC)c5[nH]c34)cc1)C2 | 260 °C
Cc1ccc(C(=O)NCC(O)CO)cc1-n1c(C)cc(OCc2ccccc2CNC(=O)Nc2cc(C(C)(C)C)nn2-c2cccc(OCCO)c2)c(Cl)c1=O (stereo not given) | 158 to 160 °C
COC(C)COC1C(n2cc(C)c(=O)[nH]c2=O)OC(COCc2ccccc2)(COS(=O)(=O)c2ccc(C)cc2)C1(CCO)OCc1ccccc1 (stereo not given) | 90 to 92 °C
Cc1cccc(C(=O)c2[nH]c3cc(Cl)ccc3c2CC(=O)O)c1 | 182 to 184 °C
COc1ncc(Cl)c(C)c1C(=O)O | 127 to 129 °C
CC(C)CC(NC(=O)C(Cc1c[nH]cn1)NC(=O)C(CC(=O)N1CCOCC1)Cc1cccc2ccccc12)C(O)C(=O)OC(C)C (mixture of isomers) | 95 to 98 °C
O=C1c2c(O)ccc(O)c2C(=O)c2c(NCCN3CCCCC3)ccc(NCCN3CCCCC3)c21 | 219 to 221 °C
CCOC(=O)c1cc(Br)cc(C(=O)OCC)n1 | 95 to 96 °C
CC(C)(C)OC(=O)CCC1CC(O)C(=O)N1 (stereo not given) | 94 to 95 °C
C[C@@H]1CCCN1CCCN1CCN(CCN2CCCCC2)C1=C(C#N)C#N | 70 to 71 °C
O=C(O)c1c(-c2ccccc2)c(=O)[nH]c2cc(Cl)ccc12 | 258 °C

Compound | melting point
O=C1NCC(c2c[nH]c3ccccc23)C1c1cn2c3c(cccc13)CCC2 (stereo not given) | 241 to 243 °C
O=C(Cl)C(=O)c1cn(Cc2ccc(F)cc2)c2ccc(OCc3ccccc3)cc12 | 155 to 158 °C
O=C(O)CCC(Cc1ccccc1Cl)(C(=O)C=Cc1ccc(Cl)cc1)c1ccccc1 (stereo not given) | 184 to 187 °C
CCCc1c(C(=O)C(C)C)c2ccc(C(N)=O)cc2n1Cc1ccc(Br)cc1F | 197 to 198 °C
CC(C)OC(=O)N1CCC(c2nc3cc(-c4ccc(C(F)(F)F)cc4)ccc3o2)CC1 | 123 to 126 °C
Cc1ccc(O)c(Cn2c(NCCCN3CCOCC3)nc3ccc(CNc4c(C)cc(CCC#N)cc4C)cc32)n1 | 114 °C
CC(=O)N1CCC(CCC(=O)c2ccc3c(c2)CCO3)CC1 | 93 to 95 °C
COc1ccc(COCCC(C)=O)cc1 | 48 to 49 °C
Cc1cccc2oc(C(O)[C@H](C)NC(=O)OCc3ccccc3)nc12 (stereo not given in full) | 98 °C
CCCCCCCCCCC(=O)C(=O)CCCCCCCCCC | 68.5 to 69 °C
O=C1c2ccccc2C(=O)N1Cc1nc(C2CC2)no1 | 115 °C
CCOC(=O)C(Cc1c([N+](=O)[O-])ccc(C)c1C)(NC(C)=O)C(=O)OCC | 112 to 113 °C
Cn1nc(-c2ccc(S(C)(=O)=O)cc2)c(-c2ccc(F)cc2)c1OCC(=O)c1ccc(F)cc1 | 166 to 169 °C
COc1ccc2[nH]c3c(c2c1)C(C(=O)OCc1ccccc1)CCC3 (stereo not given) | 81 to 83 °C
O=C(Nc1ccc(-n2nc(-c3ccoc3)cc2OC(F)F)cc1)c1ccncc1F | 172 to 174 °C
O=C(Cc1ccccc1)N1CCCSC1=C[N+](=O)[O-] | 121 to 122 °C
CCNS(=O)(=O)c1cc(C)c2cc(C(C)C)ccc(C)c1-2 | 96 to 98 °C
CCOc1c(Cl)ccc(-c2nc(C(=O)OC)c(Cl)c(S(C)(=O)=O)n2)c1F | 164 to 166 °C
O=C1c2ccc(Nc3ccc(F)cc3F)cc2CCc2ccc(OCCCN3CCOCC3)cc21 | 114 °C
COc1ccc(CCN(C)CCOc2ccc(NC(=O)c3cccc4c(=O)c5cc(F)ccc5sc34)cc2)cc1OC | 145 °C
COC(=O)c1nc(C)c(F)c(N)c1Cl | 113 to 114 °C
CC(C)n1cnc2c(NCc3cccnc3)nc(F)nc21 | 131 to 133 °C
COc1ccc(Cl)c(Oc2c(CCl)nc(N3CCOCC3)nc2NS(=O)(=O)c2ccc(C(C)(C)C)cc2)c1 | 155 to 156 °C
NC(=O)Cc1nc(-c2ccccc2)c(-c2ccccc2)o1 | 129 to 133 °C

Compound | melting point
COCCCCN1C(=O)N(c2ccc(C#N)c(C(F)(F)F)c2)C(=O)C1(C)C | 80 to 81 °C
O=C1C(=Cc2ccc(Cl)c(Cl)c2)CSCC1=Cc1ccc(Cl)c(Cl)c1 | 151 to 152 °C
CC(=O)Oc1cc(C)cc(C2(CC#N)N=NC=C2c2cc(NCC(C)OC(C)=O)nc(-c3cccnc3)n2)c1 (stereo not given) | 230 °C
CON(O)C(=O)c1ccccc1C(F)(F)F | 101 to 103 °C
COC(=O)N1CCN(Cc2nc(-c3ccc4c(c3)Nc3ccccc3S4)cs2)CC1 | 180 to 182 °C
CCOC(=O)C(=O)N1CCC(Cc2ccc(C(C)(C)C)cc2)CC1 | 168 °C
CC(Cn1nccn1)n1nnc2cc3c(=O)n(C(C)Cn4nccn4)nnc3cc2c1=O (stereo not given) | 194 to 195 °C
Cc1ccc(S(=O)(=O)N2Cc3c(C)sc(C)c3C2)cc1 | 163 to 164 °C
CCCCCc1cc(O)c2c(c1)OC(C)(C)CC2C1=CCN(Cc2ccc3ccccc3c2)CC1 (stereo not given) | 49 to 51.5 °C
Cc1ccc(NC(=O)c2cnn3c(C(F)(F)F)cc(-c4ccc(C(F)(F)F)cc4)nc23)cc1S(N)(=O)=O | 297 °C
NS(=O)(=O)c1ccccc1S(=O)(=O)N1CCC1 | 121 to 123 °C
NC(=O)c1ccc(C(=O)C=C(c2cc(Cl)cc(Cl)c2)C(F)(F)F)cc1 | 156 to 160 °C
OC1(c2cc(F)cc(OCc3ccccc3)c2)CCOCC1 | 112 °C
Cc1cc(C(=O)NC2CC2)ccc1N1CCN(C(=O)OC(C)(C)C)CC1 | 111 to 115 °C
Cc1ccc(C)c(NC(=O)CN2C(=O)C3(COc4cc5c(cc43)CCO5)c3ccccc32)c1 (stereo not given) | 250 to 252 °C
CO/N=C(\C(=O)OCCSc1nc2ccccc2s1)c1csc(NC=O)n1 | 172 to 173 °C
CCCCOC(=O)c1cn2ccnc2s1 | 84 to 86 °C
CC1(C)CC(=O)C=C(Nc2ccccc2Cl)C1 | 150 to 152 °C
Clc1ccc2[nH]c3c(c2c1)CN(CCCCc1ccncc1)CC3 | 227 to 228 °C
CC1(C)CC(=O)Nc2cc3nc(-c4cc5ccccc5[nH]4)[nH]c3cc21 | 264 to 267 °C
CN(C)c1nc(N(C)Cc2ccc(O)cc2)nc(N(C)Cc2ccccc2O)n1 | 80 to 81 °C
O=C1CN=C(c2ccccc2F)c2ccccc2N1 | 181 to 182 °C
CC1CCCN(c2cccc3c2C(=N)NC3N)C1 (stereo not given) | 104 °C
O=C(Nc1ccc(C(F)(F)F)cc1)c1ccc(-c2nn(Cc3ccccc3)c3ccccc23)o1 | 205 to 206 °C

Compound | melting point
COC(=O)c1ccc(C(=O)N(C)c2ccccc2)cc1 | 78 to 80 °C
C[C@H]1[C@H](NC(=O)OC(C)(C)C)C(=O)N1OCC(=O)OCc1ccc([N+](=O)[O-])cc1 | 71 to 75 °C
CCCCc1nc2c(C(F)(F)F)cccc2c(O)c1C(=O)OCC | 68 to 69 °C
CC(C)(C)c1cc(-c2nn(CCO)c3ncccc23)cc(C(C)(C)C)c1O | 135 to 137 °C
O=[N+]([O-])c1cn(-c2cccnc2)nc1C(F)(F)F | 121 to 123 °C
COC(=O)c1ccc(N2CCOCC2)cc1 | 152 to 154 °C
N#Cc1ccc2ccn(C3CCN(CCc4ccc(F)cc4)CC3)c2c1 | 131 to 132 °C
COc1ccc(C2=NN(C3CCSCC3)C(=O)[C@H]3CC=CC[C@@H]23)c2c1OC(C)(C)C2 (relative stereo) | 163 to 164 °C
CN1C(=O)CC[C@]2(C)c3ccc(-c4cccc(Cl)c4)cc3CC[C@@H]12 | 158 to 165 °C
CCCc1c(OCCCOc2ccc(CC(=O)OC)cc2Br)ccc(C(C)=O)c1O | 91 to 92 °C
Cc1cccc2ncc(C(=O)Nc3ccc(F)cc3)c(=O)n12 | 202 to 204 °C
C[Si](C)(C)CCCCCNC(=O)n1cc(F)c(=O)[nH]c1=O | 118 to 119 °C
c1ccc(CCN2CCN(c3n[nH]c4c3CCc3sccc3-4)CC2)cc1 | 145 to 147 °C
O=CNc1ccc(OCCNCC(O)c2ccc(OCc3ccccc3)cc2)cc1 (stereo not given) | 152 °C
O=c1[nH]c2ccsc2c(=O)n1CCN1CCC(=C(c2ccc(F)cc2)c2ccc(F)cc2)CC1 | 207 to 208 °C
CC(C)Cc1sc2c(c1C(=O)c1ccccc1)CCC2C(=O)O (stereo not given) | 106 to 108 °C
CCCCC1=NC2(CCCC2)C(=O)N1Cc1ccc(-c2ccccc2S(=O)(=O)Nc2onc(C)c2C)c(CCCC)c1 | 58 to 61 °C
c1ccc(C2CCCC2OCC2CO2)cc1 (stereo not given) | 31 °C
Cn1nc(-c2c(NCc3ccccc3)nc(N)nc2-c2ccccc2)ccc1=O | > 250 °C
CCOC(=O)[C@H](Cc1ccc(Nc2nccc3ccncc23)cc1)NC1=C(Br)C(=O)C12CCCCC2 | 192 to 195 °C
COC(=O)Cc1ccc(OCCN2CCN(c3cc(Cl)nnc3Cl)CC2)cc1 | 84 to 86 °C
Cn1c(-c2ccc(O)c(F)c2)cc2ncccc2c1=O | 182 to 184 °C
CCCC(=O)NCC1(C)Cc2c(C)c(N3CCN(c4ccc(OC)cc4)CC3)c(C)c(C)c2O1 (stereo not given) | 140 to 142 °C
